Assay results: patent US11834697B2, “Electrochemical recognition and quantification of cytochrome c oxidase expression in bacteria” (OXFORD UNIVERSITY INNOVATION LIMITED, priority 2017, dated 2023)

Tests used:
[1] = system: cytochrome c oxidase in B. subtilis; experiment: Chronoamperometry of drop-cast bacteria, turnover number per single bacterium; format: cell-based, Bacillus subtilis; conditions: B. subtilis grown on agar; current at 8 s; 37° C.
Description: (§1) For the localized electrochemical recognition of cytochrome c oxidases in bacteria, target cultures were immobilized onto a gold macroelectrode by drop-casting and immersed into a solution of PBS, containing 1.7 mM TMPD^+• (FIG. 3). The radical cation can be reduced electrochemically at the electrode to TMPD, providing the substrate for the target bacteria to oxidise and convert TMPD back to TMPD^+•. The chemical oxidation of TMPD to TMPD^+• can then be observed electrochemically.
A 3 mm (diameter) gold macroelectrode (Alvatek Ltd, UK) was used as the working electrode for all bioelectrochemical measurements. After polishing, sonication of the macroelectrode was applied for 2 minutes to assure removal of alumina powder from the electrode surface. Bacteria were immobilized onto the electrode by drop casting. […] Evaporation was monitored by eye and N2 flow was stopped the moment all liquid was evaporated. […]
As during drop-casting both living and dead bacteria in a solution are deposited at an electrode, flow cytometry measurements were performed to estimate the percentage of living cells in solution that contribute to the electrochemical signal (FIG. 7). […] Taking the electrochemical current during chronoamperometry (measurement point at 8 s), a turnover number was determined. […] As such, a turnover number per single bacterium (Tsb) could be calculated using the equation: […]

[2] = system: cytochrome c oxidase in E. coli; experiment: as above; format: cell-based, Escherichia coli
Description: as §1
A 3 mm (diameter) gold macroelectrode (Alvatek Ltd, UK) was used as the working electrode for all bioelectrochemical measurements. After polishing, sonication of the macroelectrode was applied for 2 minutes to assure removal of alumina powder from the electrode surface. Bacteria were immobilized onto the electrode by drop casting. For this purpose, the macroelectrode was placed in an electrode holder inside a 50 mL falcon tube, keeping it in an upright position. Bacteria suspension was diluted so that all depositions consisted of 3 μL bacteria suspension representing monolayer concentrations of 0.5 to 30. The falcon tube was closed and the bacteria suspension dried under N2 flow. Evaporation was monitored by eye and N2 flow was stopped the moment all liquid was evaporated. The electrode was removed from the holder and was placed in the electrochemical set up. The electrochemical cell remained thermostated to 37° C. throughout the experiments.
Chronoamperometry was carried out immediately after drop-casting of bacteria to minimize cell death at the electrode. […]
E. coli bacteria, cultured under aerobic conditions, were then investigated. […] The enhanced electrochemical signal in the presence of E. coli can also be recorded during cyclic voltammetry. However, due to the small current range detected, scan rates as low as 2 mV s^−1 need to be applied in order to visualize the oxidation process of TMPD by the bacteria. […] Consequently, chronoamperometry measurements were chosen for quantitative analyses. […]

[3] = Cyclic voltammetry of TMPD-BF4 at gold macroelectrode with DigiSim simulation; format: physicochemical
Description: [formula] in which C is the concentration, Iss represents the steady state current, F is the Faraday constant, D is the diffusion coefficient and a is the radius of the electroactive surface of the microelectrode), and its electrochemical behaviour was analysed using cyclic voltammetry. […] Various scan rates, ranging from 30 to 300 mV s^−1, were applied. As the singly oxidized form of TMPD, the TMPD^+• radical cation can be reduced to TMPD and oxidized to TMPD^2+: TMPD^+•+e^− ? TMPD (1) TMPD^2++e^− ? TMPD^+• (2)
in which only the first redox reaction is fully reversible,[25] and will be the focus of this method. Using the commercial simulation software DigiSim® (Basi), theoretical curves were fitted to the experimental data.[26-30] […] A diffusion coefficient DTMPD-BF4 of 1.0×10^−5 cm^2 s^−1 was determined for a solution temperature of 37° C. and fixed in the DigiSim® program. Detailed information about the calculation of DTMPD-BF4 can be found below. Following the approach in the literature,[31] the redox reaction (1) was simulated to determine the Butler-Volmer kinetic parameters of TMPD^+• reduction at the macroelectrode and a fitting of the concentration-independent heterogeneous standard electrochemical rate constant (ks), as well as the standard electrode potential E0, was conducted. To account for minor solution changes related to the oxidation of TMPD by oxygen, the initial concentration ratio of TMPD to TMPD^+• was slightly adjusted for each scan without changing the overall shape or position of the simulated curves. This allowed an offset correction for the presented curves and a capacitive contribution of between 10 to 30 μF was attributed. From the simulations, the standard electrochemical rate constant ks was determined to be equal to or greater than 0.025 cm s^−1, and a standard electrode potential E0 of 0.013 (±0.001) V vs. SCE was determined. […]
A diffusion coefficient (DTMPD-BF4) of 1×10^−5 cm^2 s^−1 was found following the reversible Randles-Ševčík method. […] The diffusion coefficient was determined using the equation

| Compound | turnover number per single bacterium (Tsb) [1] | turnover number per single bacterium (Tsb) ([2]; E. coli grown aerobically (exponential phase)) | turnover number per single bacterium (Tsb) ([2]; E. coli grown in broth to the stationary phase) | turnover number per single bacterium (Tsb) ([2]; E. coli grown to the exponential phase (aerobic), current at 8 s) | diffusion coefficient DTMPD-BF4 ([3]; 2.1 mM TMPD-BF4 in PBS pH 7.4, 37° C., Randles-Ševčík, 3 mm gold electrode) | standard electrochemical rate constant ks ([3]; TMPD^+• reduction at gold macroelectrode, fitted by simulation) [cm/s] | standard electrode potential E0 ([3]; TMPD^+•/TMPD couple, fitted by simulation) |
| --- | --- | --- | --- | --- | --- | --- | --- |
| CN(C)c1ccc(N(C)C)cc1 [TMPD, N,N,N′,N′-tetramethyl-para-phenylene diamine] | 9.8 (±0.3)×10^8 L mol^−1 s^−1 | 3.8 (±0.06)×10^8 L mol^−1 s^−1 | 1.8 (±0.3)×10^9 L mol^−1 s^−1 | 3.8 (±0.06)×10^8 L mold s^−1 | – | – | – |
| N,N,N′,N′-tetramethyl-para-phenylene diamine tetrafluoroborate [TMPD-BF4] | – | – | – | – | 1×10^−5 cm^2 s^−1 | ≥ 0.025 | 0.013 (±0.001) V vs. SCE |
